# Legend:
# [1] = Thioflavin-T kinetics assay of aggregation propensity; format: physicochemical; conditions: 500 μg/ml peptide in normal saline, 12-24 h; FIGS. 6A, 6B
# Method: THT method. ThT (Sigma-Aldrich) was prepared at 4 mM in MQ water. 50 μL of 500 μg/ml peptide (in normal saline) were incubated with 250 μL of 2.4 mM ThT solution (in water). ThT fluorescence was measured at 440 nm excitation and 480 nm emission in a black, clear-bottom 96-well plates (Corning, USA) at 10-15 min intervals (from bottom with periodic shaking) over 12-24 h on SpectraMax i3 microplate reader (Molecular Devices, USA). Curves were fitted using GraphPad Prism software.
# 5XFAD mice [2] = experiment: Plaque load by immunohistochemistry in brains of 5XFAD mice; format: in vivo, mouse; conditions: 5XFAD mice treated for five weeks
# Method: Female wild type and 5xFAD transgenic mice (Jackson laboratories) were used for the mouse behavioural experiment. Mice were individually housed in controlled humidity, temperature and light conditions, and had ad libitum access to food and water. Randomization to treatment groups was carried out by using GraphPad QuickCalcs (GraphPad Software, San Diego, CA, USA), and all data analysis was performed blinded to the experimental groups. All the animal experiments followed the Council of Europe Legislation and Regulation for Animal Protection and are approved by the National Animal Experiment Board of Finland. Every effort was made to minimize the harm and suffering of the animals. […]
# Immunohistochemistry: The brains were post-fixed in 4% paraformaldehyde (PFA, Sigma-Aldrich, St. Louis, MO, USA) for 20 hours, followed by cryoprotection in 30% sucrose for 48 hours. […] For quantification of the immunoreactivities, hippocampal areas were imaged using 4 or 10× magnification on an AX70 microscope (Olympus corporation, Tokyo, Japan) with an adjacent digital camera (Color View 12 or F-View, Soft imaging system, Muenster, Germany) running AnalySis software (Soft Imaging System). Quantification of the immunoreactivities was performed using ImagePro Plus software (Media Cybernetics Inc., Rockville, MD, USA) at a predefined range and presented as relative immunoreactive area. […]
# 5XFAD mice [3] = experiment: Nest building behavioural test in 5XFAD mice; format: in vivo, mouse; conditions: peptide i.v., FIGS. 4A-4C
# Method: Female wild type and 5xFAD transgenic mice (Jackson laboratories) were used for the mouse behavioural experiment. Mice were individually housed in controlled humidity, temperature and light conditions, and had ad libitum access to food and water. Randomization to treatment groups was carried out by using GraphPad QuickCalcs (GraphPad Software, San Diego, CA, USA), and all data analysis was performed blinded to the experimental groups. […] Every effort was made to minimize the harm and suffering of the animals. The mice were treated with the vehicle or peptide preparations once a week i.v. starting at the age of 1 month until 3 months of age. Behavioral testing: the 5xFAD mice have deficits in nest building test starting at 3 months of age. Briefly, the soft bedding material and plastic shelter tube are moved to the one end of the cage and soft tissue paper (17 cm×17 cm) is placed in the other end of the cage. After 24 hours, a picture of the cage is taken, and the points given according to the set scale. 0 points are given if tissue paper remains untouched, 5 points are given when animal incorporates tissue into nest.
# ERK1/2 phosphorylation = ERK1/2 phosphorylation ELISA in SH-SY5Y cells; format: cell-based; conditions: 30 pM peptide, 5 minutes, FIG. 16
# Method: Phosphorylation of ERK is important for cell proliferation, neurogenesis and synaptic plasticity, and is downstream of calcium influx through the α7 receptor. To obtain the data shown in FIG. 16, SH-SY5Y cells were treated with 30 pM peptide for 5 minutes, then lysed and ERK phosphorylation quantified via a commercial ELISA kit.
substance,measurement,setting,value
SEQ ID NO:3: Aβ40: Aβ42 with deletion of residues 41 and 42 of the beta-sheet aggregation domain,aggregation propensity (thioflavin-T fluorescence),[1],lower aggregation propensity than wild type Aβ42
same,plaque load in the cortex versus vehicle treated animals,5XFAD mice [2]; FIG. 5A,reduced plaque load in the cortex
same,plaque accumulation in the hippocampi versus vehicle treated animals,5XFAD mice [2]; FIG. 5B,decreased level of plaque accumulation in the hippocampi
same,phenotype restoration / rescue (behaviour),5XFAD mice [3],phenotype restoration
same,phenotype restoration / rescue (behaviour),5XFAD mice [3]; listed as RT3,phenotype rescue
SEQ ID NO:88: Aβ42 analogue having a proline (P) substitution in place of methionine (M) at position 35 (M35P),aggregation propensity (thioflavin-T fluorescence),[1],lower aggregation propensity than the peptide having SEQ ID NO:3
same,downstream ERK1/2 phosphorylation,ERK1/2 phosphorylation,induces downstream ERK1/2 phosphorylation
same,phenotype restoration / rescue (behaviour),5XFAD mice [3],phenotype rescue
SEQ ID NO: 190: Aβ42 analogue with N-methyl methionine substituted for the naturally occurring methionine at position 35,aggregation propensity (thioflavin-T fluorescence),[1],lower aggregation propensity than wild type Aβ42
same,downstream ERK1/2 phosphorylation,ERK1/2 phosphorylation,induces downstream ERK1/2 phosphorylation
SEQ ID NO: 192: Aβ42 analogue with pyrrolysine substituted for the naturally occurring methionine at position 35,aggregation propensity (thioflavin-T fluorescence),[1],lower aggregation propensity than wild type Aβ42
